This assay deals with dorsal forearm skin. Nature of the assay: In vivo biopsy (dorsal forearm, histology). Details: species or system human. The conditions noted are these: 3 weeks semi-occlusion patch, retinol 0.05%. On the procedure: Healthy female Caucasian subjects aged 30-65, with skin type II or III and mild to moderate photo damage, were treated on the dorsal forearm for 3 weeks (3 consecutive rounds of 5×24 hour) under semi-occlusion patches. Test articles including active ingredients, vehicle controls, and retinol were applied in a randomized allocation on 6 sites on each forearm. The application dose was 2 mg/cm^2. After 3 week treatment, a 2 mm punch biopsy was obtained from each treatment site and fixed in 10% buffered formalin. Tissue samples then embedded in paraffin, sectioned (5 μm thickness), and stained for skin markers after re-hydration. […] Retinol at a active concentration of 0.05% was used a positive control. Retinol use at a 0.05% active concentration in the semi-occlusion patch vehicle formulation yielded a visual score of approximately 0.56 out of a 4 point scale in HE staining (measuring hematoxylin and eosin staining, an indication of viable epidermal thickness and health) with 63.6% of the subjects showing an improvement; a visual score of 0.6 out of a 4 point scale in M-TC staining (Masson's trichrome staining, assessing total mature fiber-forming collagen in the dermis—mainly Collagen I, […] and Collagen V) with 51.6% of the subjects showing an improvement; a visual score of 0.52 out of a 4 point scale for pro-Col (measuring new synthesis of Collagen I by skin fibroblasts in the dermis) with 51.6% of the subjects showing an improvement; and a visual score of 0.57 out of a 4 point scale for HA (measuring level of hyaluronic acid in both dermis and epidermis) with 50% of the subjects showing an improvement.

The mark [1] stands for this setting: out of a 4 point scale, extract 0.33%.

On to `CC1=C(/C=C/C(C)=C/C=C/C(C)=C/CO)C(C)(C)CCC1` [Retinol], for which, for the setting “extract 0.33%”, the “subjects showing an improvement, HA” value worked out at 50%; the “subjects showing an improvement, HE staining” value is on record as 63.6%; the “subjects showing an improvement, M-TC staining” value came to 51.6%; the “subjects showing an improvement, pro-Col” value came to 51.6%. In addition, the “visual score in HE staining (viable epidermal thickness and health)” value (out of a 4 point scale, 2 mg/cm^2, extract 0.33% (Example 1B ethanol/water extract)) was “approximately 0.56”. Further, under setting [1], the “visual score for HA (hyaluronic acid in dermis and epidermis)” value is reported as 0.57; the “visual score for pro-Col (new synthesis of Collagen I)” value is 0.52; the “visual score in M-TC staining (total mature fiber-forming collagen in the dermis)” value came out at 0.6.
